The target of the experiment is T1, IKKβ (Homo sapiens, UniProt O14920).
T1 construct: purchased Upstate Biotechnology Inc. 14-485
T1 sequence (O14920 1-756): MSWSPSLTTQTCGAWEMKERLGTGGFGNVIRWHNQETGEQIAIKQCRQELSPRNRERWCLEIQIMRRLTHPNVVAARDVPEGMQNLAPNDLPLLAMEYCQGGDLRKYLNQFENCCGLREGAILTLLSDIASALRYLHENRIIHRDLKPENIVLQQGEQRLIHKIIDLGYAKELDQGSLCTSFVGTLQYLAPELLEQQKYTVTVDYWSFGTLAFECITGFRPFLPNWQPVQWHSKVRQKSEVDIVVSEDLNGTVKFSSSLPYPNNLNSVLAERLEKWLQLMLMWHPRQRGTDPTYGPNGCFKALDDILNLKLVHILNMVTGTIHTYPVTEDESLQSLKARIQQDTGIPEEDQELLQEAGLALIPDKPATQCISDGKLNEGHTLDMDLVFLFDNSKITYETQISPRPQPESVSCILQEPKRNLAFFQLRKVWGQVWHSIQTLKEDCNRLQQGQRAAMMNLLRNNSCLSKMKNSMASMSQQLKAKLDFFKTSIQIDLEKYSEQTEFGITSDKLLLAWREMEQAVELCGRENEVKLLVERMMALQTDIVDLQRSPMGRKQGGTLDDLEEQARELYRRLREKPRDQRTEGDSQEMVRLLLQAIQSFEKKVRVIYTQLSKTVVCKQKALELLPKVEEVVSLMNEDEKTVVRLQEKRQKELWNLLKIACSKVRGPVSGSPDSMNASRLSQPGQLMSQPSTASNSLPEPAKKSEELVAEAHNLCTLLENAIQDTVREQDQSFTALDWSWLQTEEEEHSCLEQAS
Put plainly: IKKβ inhibition assay by fluorescence polarization (IMAP kit). In kind it is biochemical. Conditions: test compound at 1 μM; inhibition rate exceeding 100% is indicated as 100%. Here is the method: Details of the above will be described in detail in [Pharmacological Test] in Examples described below in this specification. IKKβ inhibition assay by fluorescence polarization was performed using IMAP™ IKKβ assay kit (manufactured by Molecular Devices Corporation, catalogue No. R8115) or IMAP™ FP Screening Express kit (manufactured by Molecular Devices Corporation, catalogue No. R8127).
In order to evaluate IKKβ inhibitory activity of the present compounds, an IKKβ inhibition assay by a fluorescence polarization method was conducted. The assay was conducted using IMAP™ IKKβ assay kit (manufactured by Molecular Devices Corporation, catalogue No. R8115) or IMAP™ FP Screening Express kit (manufactured by Molecular Devices Corporation, catalogue No. R8127) in accordance with the protocol attached to each kit. The specific methods are described below.
1) Complete Reaction Buffer: a complete reaction buffer was so prepared to obtain a final composition of 10 mM Tris-HCL (pH 7.2), 10 mM magnesium chloride, 0.1% bovine serum albumin, and 1 mM dithiothreitol.
2) Substrate Working Solution: 400 nM substrate working solution was prepared by dissolving and diluting a fluorescein-labeled IKKβ substrate peptide (amino acid sequence: GRHDSGLDSMK) with the complete reaction buffer.
3) Enzyme Working Solution: 0.2 units/mL enzyme working solution was prepared by diluting IKKβ solution (manufactured by Upstate Biotechnology Inc., catalogue No. 14-485) with the complete reaction buffer.
4) ATP Working Solution: 8 μM ATP working solution was prepared by dissolving ATP into ultrapure water followed by diluting it with the complete reaction buffer.
5) IMAP binding solution: After diluting an IMAP binding buffer with ultrapure water, an IMAP binding solution was prepared by diluting an IMAP binding reagent with the diluted IMAP binding buffer.
A test compound was dissolved in dimethyisulfoxide followed by diluting it with the complete reaction buffer to prepare 4 μM test compound solution.
1) To a 384-well plate, the test compound solution, the enzyme working solution, the substrate working solution, and the ATP working solution were added in an amount of 5 μL per well.
2) Incubation was performed at room temperature for 60 minutes under light shielding.
3) The IMAP binding solution was added in an amount of 60 μL per well.
4) Incubation was performed at room temperature for 30 minutes under light shielding.
5) Fluorescence polarization value of each well was measured by using Analyst™ HT (multimode plate reader manufactured by Molecular Devices Corporation) and Criterion Host Software v2.00 (manufactured by Molecular Devices Corporation).
6) Operations were performed in the same manner as in 1) to 5) except for changing the test compound to 0.4% dimethylsulfoxide. The obtained result was designated as a control.
7) Operations were performed in the same manner as in 1) to 5) except for changing the test compound and the enzyme working solution to 0.4% dimethylsulfoxide and the complete reaction buffer, respectively. The obtained result was designated as a background.
An IKKβ inhibition rate (%) was calculated by the following equation.
IKKβ inhibition rate (%)=100×{1-(fluorescence polarization value of test compound−fluorescence polarization value of background)/(fluorescence polarization value of control−fluorescence polarization value of background)}
For orientation: In fluorescence polarisation assays a small probe gives low polarisation when free and higher when bound to something large.

SMILES strings stand for the structures.

Broadly, the inhibition is the share of the control response that was lost under treatment. A lower inhibition goes with little suppression. In turn, `COc1c(-c2ccoc2)cc(F)c2c(C(N)=O)c(NC(N)=O)[nH]c12` [Compound No. 8-3, 2-Aminocarbonylamino-4-fluoro-6-(furan-3-yl)-7-methoxyindole-3-carboxamide] had an inhibition at 1 µM of 87%. Turning to `COc1ccc2c(C(N)=O)c(NC(N)=O)[nH]c2c1` [Compound No. 1-1, 2-Aminocarbonylamino-6-methoxyindole-3-carboxamide], 1 µM produced 95% inhibition. Take `NC(=O)Nc1[nH]c2cc(O)ccc2c1C(N)=O` [Compound No. 2-1, 2-Aminocarbonylamino-6-hydroxyindole-3-carboxamide]: the inhibition at 1 µM came out at 90%.

Molecule `CC(=O)Nc1ccc(Oc2ccc3c(C(N)=O)c(NC(N)=O)[nH]c3c2)cc1` [Compound No. 6-1, 6-(4-Acetylaminophenyloxy)-2-(aminocarbonylamino)indole-3-carboxamide] registered an inhibition at 1 µM of 98%. For the molecule `NC(=O)Nc1[nH]c2cc(Oc3ccc([N+](=O)[O-])cc3)ccc2c1C(N)=O` [Compound No. 4-1, 2-Aminocarbonylamino-6-(4-nitrophenyloxy)indole-3-carboxamide], the inhibition at 1 µM turned out to be 100%. The value for `COc1ccc(F)c2c(C(N)=O)c(NC(N)=O)[nH]c12` [Compound No. 1-4, 2-Aminocarbonylamino-4-fluoro-7-methoxyindole-3-carboxamide] was 60%. To `COc1cccc2c(C(N)=O)c(NC(N)=O)[nH]c12` [Compound No. 1-3, 2-Aminocarbonylamino-7-methoxyindole-3-carboxamide] belongs 78%; to `NC(=O)Nc1[nH]c2cc(OCC3CC3)ccc2c1C(N)=O` [Compound No. 3-2, 2-Aminocarbonylamino-6-cyclopropylmethyloxyindole-3-carboxamide], 91%. In turn, `NC(=O)Nc1[nH]c2cc(Oc3ccnc(Cl)c3)ccc2c1C(N)=O` [Compound No. 4-3, 2-Aminocarbonylamino-6-(2-chloropyridine-4-yloxy)indole-3-carboxamide] displayed an inhibition at 1 µM of 89%. The value for `NC(=O)Nc1[nH]c2cc(Oc3ccc(Cl)cc3)ccc2c1C(N)=O` [Compound No. 9-1, 2-Aminocarbonylamino-6-(4-chlorophenyloxy)indole-3-carboxamide] was 92%; that for `Cc1cc([N+](=O)[O-])ccc1Oc1ccc2c(C(N)=O)c(NC(N)=O)[nH]c2c1` [Compound No. 4-6, 2-Aminocarbonylamino-6-(2-methyl-4-nitrophenyloxy)indole-3-carboxamide] was 97%; that for `C=Cc1cc(F)c2c(C(N)=O)c(NC(N)=O)[nH]c2c1OC` [Compound No. 8-2, 2-Aminocarbonylamino-4-fluoro-7-methoxy-6-vinylindole-3-carboxamide] was 91%.

For the origin of these results see patent US8445529B2, “Indole derivative having, carbamoyl group, ureido group and substituted oxy group” (Santen Pharmaceutical Co., Ltd., priority 2008, dated 2013).
